One data set deals with T1, PKA-phosphorylated RyR2 (Homo sapiens, UniProt Q92736).
T1 construct: Cardiac SR membranes were prepared as previously described; from tissue; host or cells: cardiac sarcoplasmic reticulum (heart muscle microsomes)
The data set can be described thus: Calstabin2 rebinding assay: binding of calstabin2 to PKA-phosphorylated RyR2 (cardiac SR, immunoblot). To be noted: 100 nM compound; immunoblot with calstabin2 antibody. On the procedure: Cardiac SR membranes were prepared as previously described (Marx et al., 2000; Kaftan et al., Circ. Res., 1996, 78:990-97). Immunoblotting of microsomes (50 μg) was performed as described, with anti-calstabin antibody (1:1,000) (Jayaraman et al., J. Biol. Chem., 1992, 267:9474-77) for 1 hr at room temperature (Reiken et al., Circulation, 107:2459-66, 2003). After incubation with HRP-labeled anti-rabbit IgG (1:5,000 dilution; Transduction Laboratories, Lexington, Ky.), the blots were developed using ECL (Amersham Pharmacia, Piscataway, N.J.) and detected on x-ray film, or exposed to secondary antibodies labeled with infrared Dye and visualized on equipment from Li-Cor Biosciences (model Odyssey). Unless otherwise stated, compounds were tested at a concentration of 100 nM. A representative calstabin2 binding assay is presented below.
A. PKA phosphorylation of cardiac sarcoplasmic reticulum (CSR)
B. Reaction mixture was set up in 1.5 ml microfuge tube. 200 μg of cardiac SR were added to a reaction mix of kinase buffer, PKA and ATP to a final volume of 100 (Reaction mix below). ATP was added last to initiate the reaction.
20 μl Sample (cardiac SR, 2 or 10 μg/μl) 10 μl=10× Kinase buffer (80 mM MgCl2, 100 mM EGTA, 500 mM Tris/PIPES), pH=7.0
20 μl PKA (2units/ul) (Sigma # P2645)
40 μl=distilled H2O • 1. The tubes were incubated at 30° C. for 30 minutes. • 2. The reaction mix was then transferred to 0.5 ml thick walled glass tubes. • 3. The glass tubes containing the reaction mix were centrifuged for 10 min at 50,000×g in Sorvall Centrifuge RCM120EX using S120AT3 rotor. Centrifugation at 50,000×g for 10 min is sufficient to isolate the microsomes. • 4. The resulting pellet was washed 4 times with binding buffer (10 mM Imidazol 300 mM Sucrose, pH=7.4). Each time 100111 of 1× binding buffer was added to the tube to wash the pellet. The pellet was resuspended by flushing up and down using the pipette tip. After the last spin 501.11 of binding buffer was added and the pellets from all tubes were pooled. The reaction was stored at −20° C. • 5. Phosphorylation was confirmed by separating approximately 10 μg of CSR by 6% Polyacylamide gel electrophoresis (PAGE) and analyzing the immunoblots for both total RyR (5029 Ab, 1:3000 dilution or Monoclonal Ab from Affinity Bioreagents, Cat # MA3-916, 1:2000 dilution) and PKA phosphorylated RyR2 (P2809 Ab, 1:10000 dilution). • 6. Aliquots can be stored at −80 C.
C. Calstabin Rebinding Assay
• 1. PKA-phosphorylated CSR (approximately 20 μg) was incubated with 250 nM Calstabin 2 in 100111 binding buffer (as described above) with or without compounds. • 2. […] Calstabin2 binding was detected with anti-FKBP (Jayaraman et al., J. Biol. Chem. 1992; 267:9474-77, 1:2000) primary antibody and appropriate secondary antibody.
(Immunoblotting shows a protein as a band on a membrane.)

Data set [1] can be described thus: Metabolic stability in rat microsomes (% remaining). It is filed as in vitro ADME. The procedure: 0.1M Tris HCl buffer at pH 7.4 containing 5 mM EDTA.
To a 50 mL falcon tube containing 2.79 mL of dilution buffer were added 0.429 mL of NADPH-regenerating soln. A and 0.079 mL of NADPH-regenerating soln. B […]
[…] A 50 mL falcon tube containing 3.32 mL of dilution buffer was prewarmed at 37° C. for 15 min. (at least 10 min.) 0.178 mL of microsome (24.6 mg/mL) were added to the prewarmed dilution buffer. The protein concentration of this microsome preparation was 1.25 mg/mL.
Sample (Test Compound)—Original and Intermediate Stock Solutions:
100 μM intermediate solution of the test compound from the original stock solution were prepared using the dilution buffer. A 5 μM solution was prepared by diluting the 100 μM intermediate solution using dilution buffer.
(The experiments were conducted in 1.5 mL eppendorf micro centrifuge tubes) 0 minutes incubation. Procedure: a. Add 100 μL of prewarmed microsomes b. Add 50 μL of 5 μM solution of the test compound. c. Add 500 μL of cold stop solution (ice cold Methanol) d. Add 100 μL of NADPH cofactor solution to the eppendorf. a. Vortex mix the eppendorf. […]
b. Add 100 μL of NADPH cofactor solution to the eppendorf. c. Add 50 μL of 5 μM solution of the test compound. d. Add 100 μL of prewarmed microsomes e. Incubate the eppendorf at 37° C. 300 rpm for ‘t’ min. on a thermomixer. f. Remove the eppendorf from thermomixer g. Add 500 μL of cold stop solution (ice cold Methanol) h. Vortex mix the eppendorf.
Both the ‘0’ and ‘t’ minutes incubated samples were centrifuged at 15, 000 rcf at 4° C. for 15 min. 500 μL of the supernatant solution was removed and subject it to LC/MS analysis (SIM—Selected Ion Monitoring) […]
Results are expressed as % test compound remaining=(MS Area response of T min sample/MS Area response of ‘0’ min sample)*100. The MS area used is an average of duplicate injections.
Time points=0, 15, 30 and 60 min. for each test compound
2 μM Imipramine—5 min. and 2 μM Imipramine—15 min. incubation was used as a positive control for the rat and mouse liver microsome stability experiments.

T1 sequence (Q92736 whole entry): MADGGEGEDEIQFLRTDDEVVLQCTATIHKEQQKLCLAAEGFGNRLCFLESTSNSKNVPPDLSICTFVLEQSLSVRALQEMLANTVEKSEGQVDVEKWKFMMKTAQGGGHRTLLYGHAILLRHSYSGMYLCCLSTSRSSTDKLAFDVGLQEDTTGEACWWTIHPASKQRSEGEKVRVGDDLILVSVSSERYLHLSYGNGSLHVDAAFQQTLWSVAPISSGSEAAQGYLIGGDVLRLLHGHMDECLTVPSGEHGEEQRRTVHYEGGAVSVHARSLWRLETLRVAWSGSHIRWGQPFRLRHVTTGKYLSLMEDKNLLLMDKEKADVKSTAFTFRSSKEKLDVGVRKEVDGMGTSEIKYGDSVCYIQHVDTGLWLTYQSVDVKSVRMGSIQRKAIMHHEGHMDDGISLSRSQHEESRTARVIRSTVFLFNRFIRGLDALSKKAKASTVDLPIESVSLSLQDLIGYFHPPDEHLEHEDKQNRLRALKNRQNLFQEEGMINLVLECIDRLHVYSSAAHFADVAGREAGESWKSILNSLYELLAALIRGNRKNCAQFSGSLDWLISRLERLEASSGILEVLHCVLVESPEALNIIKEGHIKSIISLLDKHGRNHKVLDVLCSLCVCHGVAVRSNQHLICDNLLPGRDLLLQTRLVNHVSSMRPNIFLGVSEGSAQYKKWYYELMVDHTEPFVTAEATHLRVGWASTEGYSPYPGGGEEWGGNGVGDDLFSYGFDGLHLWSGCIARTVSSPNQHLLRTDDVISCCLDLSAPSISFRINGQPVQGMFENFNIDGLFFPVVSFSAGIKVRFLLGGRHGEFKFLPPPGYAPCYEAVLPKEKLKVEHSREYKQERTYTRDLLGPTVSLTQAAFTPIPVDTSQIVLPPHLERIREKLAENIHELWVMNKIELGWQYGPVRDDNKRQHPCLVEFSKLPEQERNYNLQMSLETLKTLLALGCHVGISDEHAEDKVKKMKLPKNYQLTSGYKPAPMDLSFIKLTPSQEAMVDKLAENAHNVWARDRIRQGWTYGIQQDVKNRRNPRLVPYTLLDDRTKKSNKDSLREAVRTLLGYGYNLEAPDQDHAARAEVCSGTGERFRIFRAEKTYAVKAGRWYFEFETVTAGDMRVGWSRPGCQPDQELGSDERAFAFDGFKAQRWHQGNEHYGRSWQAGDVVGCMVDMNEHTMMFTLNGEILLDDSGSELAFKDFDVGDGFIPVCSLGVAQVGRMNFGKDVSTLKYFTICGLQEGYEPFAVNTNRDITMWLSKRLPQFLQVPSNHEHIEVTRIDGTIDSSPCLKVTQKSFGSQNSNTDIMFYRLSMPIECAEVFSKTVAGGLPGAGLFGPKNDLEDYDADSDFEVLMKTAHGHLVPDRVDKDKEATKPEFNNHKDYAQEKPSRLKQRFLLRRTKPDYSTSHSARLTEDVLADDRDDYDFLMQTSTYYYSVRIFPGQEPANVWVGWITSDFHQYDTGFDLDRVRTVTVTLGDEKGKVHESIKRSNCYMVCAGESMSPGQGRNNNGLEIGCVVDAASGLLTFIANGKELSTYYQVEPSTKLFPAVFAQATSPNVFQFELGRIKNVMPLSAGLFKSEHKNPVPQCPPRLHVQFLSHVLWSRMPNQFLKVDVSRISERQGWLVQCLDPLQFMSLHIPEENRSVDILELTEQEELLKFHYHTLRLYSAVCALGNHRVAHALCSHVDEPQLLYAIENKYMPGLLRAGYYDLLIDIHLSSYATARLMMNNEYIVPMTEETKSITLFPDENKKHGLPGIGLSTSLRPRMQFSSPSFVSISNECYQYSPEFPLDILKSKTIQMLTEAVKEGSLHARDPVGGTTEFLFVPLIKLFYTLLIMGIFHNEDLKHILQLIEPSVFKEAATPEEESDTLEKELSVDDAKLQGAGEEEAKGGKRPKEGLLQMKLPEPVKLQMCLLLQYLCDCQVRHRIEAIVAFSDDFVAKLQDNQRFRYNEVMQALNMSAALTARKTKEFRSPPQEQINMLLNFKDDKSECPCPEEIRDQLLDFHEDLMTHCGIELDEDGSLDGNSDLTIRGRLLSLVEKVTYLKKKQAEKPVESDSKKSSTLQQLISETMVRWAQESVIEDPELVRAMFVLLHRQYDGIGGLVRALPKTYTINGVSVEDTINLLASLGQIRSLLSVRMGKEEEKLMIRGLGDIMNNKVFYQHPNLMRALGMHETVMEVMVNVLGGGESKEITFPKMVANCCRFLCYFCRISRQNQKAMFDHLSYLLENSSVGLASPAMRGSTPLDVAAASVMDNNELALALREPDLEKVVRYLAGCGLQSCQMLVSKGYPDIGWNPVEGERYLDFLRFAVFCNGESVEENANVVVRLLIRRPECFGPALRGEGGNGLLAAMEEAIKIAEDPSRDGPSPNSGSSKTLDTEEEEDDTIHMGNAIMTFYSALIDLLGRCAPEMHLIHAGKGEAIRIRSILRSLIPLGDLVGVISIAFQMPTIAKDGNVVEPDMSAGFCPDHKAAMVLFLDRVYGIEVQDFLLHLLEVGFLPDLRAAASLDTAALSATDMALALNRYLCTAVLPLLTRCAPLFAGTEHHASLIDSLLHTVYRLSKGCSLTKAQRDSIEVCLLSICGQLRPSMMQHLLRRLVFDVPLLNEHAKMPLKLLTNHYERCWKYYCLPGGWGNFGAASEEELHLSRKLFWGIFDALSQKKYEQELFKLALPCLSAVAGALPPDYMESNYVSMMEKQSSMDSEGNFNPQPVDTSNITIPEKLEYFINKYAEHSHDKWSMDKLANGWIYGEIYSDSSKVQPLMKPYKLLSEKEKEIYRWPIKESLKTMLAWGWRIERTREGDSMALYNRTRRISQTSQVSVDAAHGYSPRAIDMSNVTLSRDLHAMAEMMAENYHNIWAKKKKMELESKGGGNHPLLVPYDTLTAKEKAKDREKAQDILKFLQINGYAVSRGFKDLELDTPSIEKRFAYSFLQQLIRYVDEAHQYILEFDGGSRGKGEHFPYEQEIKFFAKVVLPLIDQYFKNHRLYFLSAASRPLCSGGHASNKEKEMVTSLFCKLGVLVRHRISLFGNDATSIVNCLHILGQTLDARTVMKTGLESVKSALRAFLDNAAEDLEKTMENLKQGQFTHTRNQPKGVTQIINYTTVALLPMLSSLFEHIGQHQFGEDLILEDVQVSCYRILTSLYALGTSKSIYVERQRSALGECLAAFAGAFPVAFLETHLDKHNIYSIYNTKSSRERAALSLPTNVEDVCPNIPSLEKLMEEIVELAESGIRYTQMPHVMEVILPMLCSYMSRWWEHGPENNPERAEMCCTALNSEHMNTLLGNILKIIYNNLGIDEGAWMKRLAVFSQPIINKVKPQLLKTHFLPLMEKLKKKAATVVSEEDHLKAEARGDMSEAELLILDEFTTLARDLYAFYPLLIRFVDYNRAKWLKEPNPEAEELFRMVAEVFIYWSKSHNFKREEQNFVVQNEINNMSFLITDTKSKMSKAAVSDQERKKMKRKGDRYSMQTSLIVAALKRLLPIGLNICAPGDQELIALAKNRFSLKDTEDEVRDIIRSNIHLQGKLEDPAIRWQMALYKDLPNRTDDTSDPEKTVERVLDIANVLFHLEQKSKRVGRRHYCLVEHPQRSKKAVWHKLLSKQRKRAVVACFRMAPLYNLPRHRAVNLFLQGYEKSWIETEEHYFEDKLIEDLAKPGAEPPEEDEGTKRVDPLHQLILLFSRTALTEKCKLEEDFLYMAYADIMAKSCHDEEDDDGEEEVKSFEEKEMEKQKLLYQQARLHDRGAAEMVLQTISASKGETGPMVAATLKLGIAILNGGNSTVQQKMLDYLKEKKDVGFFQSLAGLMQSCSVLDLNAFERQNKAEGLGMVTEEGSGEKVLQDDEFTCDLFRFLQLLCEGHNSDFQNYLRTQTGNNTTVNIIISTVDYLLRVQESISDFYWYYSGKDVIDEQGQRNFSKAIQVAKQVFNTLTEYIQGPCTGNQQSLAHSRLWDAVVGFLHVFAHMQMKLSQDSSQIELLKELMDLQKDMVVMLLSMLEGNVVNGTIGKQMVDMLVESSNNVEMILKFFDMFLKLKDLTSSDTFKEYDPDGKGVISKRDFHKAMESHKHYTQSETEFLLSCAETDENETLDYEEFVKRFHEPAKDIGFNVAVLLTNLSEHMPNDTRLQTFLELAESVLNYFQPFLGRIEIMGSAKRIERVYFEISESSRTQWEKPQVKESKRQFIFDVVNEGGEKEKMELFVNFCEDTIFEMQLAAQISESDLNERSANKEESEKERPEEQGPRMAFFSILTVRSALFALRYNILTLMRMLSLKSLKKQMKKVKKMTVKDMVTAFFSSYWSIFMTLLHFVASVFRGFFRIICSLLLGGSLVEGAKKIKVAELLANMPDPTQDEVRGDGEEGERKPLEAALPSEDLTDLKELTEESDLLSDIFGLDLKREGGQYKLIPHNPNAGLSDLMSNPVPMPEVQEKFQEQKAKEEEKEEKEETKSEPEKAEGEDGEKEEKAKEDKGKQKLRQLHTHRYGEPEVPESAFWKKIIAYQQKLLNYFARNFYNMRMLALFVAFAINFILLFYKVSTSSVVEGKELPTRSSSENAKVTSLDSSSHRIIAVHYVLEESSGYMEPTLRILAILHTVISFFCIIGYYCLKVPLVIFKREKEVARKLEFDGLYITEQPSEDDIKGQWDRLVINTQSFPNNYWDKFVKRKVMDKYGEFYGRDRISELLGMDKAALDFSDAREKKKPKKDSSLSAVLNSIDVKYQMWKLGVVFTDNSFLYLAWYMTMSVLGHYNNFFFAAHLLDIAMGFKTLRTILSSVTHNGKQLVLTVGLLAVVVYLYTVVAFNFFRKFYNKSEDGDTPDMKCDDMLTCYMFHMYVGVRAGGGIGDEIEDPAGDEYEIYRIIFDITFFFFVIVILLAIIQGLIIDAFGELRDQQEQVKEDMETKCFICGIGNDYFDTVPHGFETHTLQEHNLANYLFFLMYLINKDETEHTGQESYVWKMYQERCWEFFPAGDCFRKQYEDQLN
T1 sequence (P68106 whole entry partner): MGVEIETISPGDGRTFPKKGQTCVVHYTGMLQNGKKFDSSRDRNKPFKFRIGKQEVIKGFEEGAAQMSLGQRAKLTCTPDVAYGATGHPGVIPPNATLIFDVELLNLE

`COc1ccc2c(c1)CN(Cc1ccc(C(=O)O)cc1)CCS2` [Compound 1, 4-((7-Methoxy-2,3-dihydrobenzo[f][1,4]thiazepin-4(5H)-yl)methyl)benzoic acid]: the “binding of calstabin2 to PKA-phosphorylated RyR2” value at PKA-phosphorylated RyR2 is listed as “prevented the dissociation of calstabin2 from PKA-phosphorylated RyR2 and/or enhanced the (re)binding of calstabin2 to PKA-phosphorylated RyR”. The “% remaining” value came to 54% in data set [1] (15 min), 17% in data set [1] (30 min) and 2% in data set [1] (1 h).

The values above are taken from patent publication US20130281512A1, “AGENTS FOR TREATING DISORDERS INVOLVING MODULATION OF RYANODINE RECEPTORS” (LES LABORATOIRES SERVIER, priority 2012, published 2013).
